Assay results taken from patent US6395762B1, “Phenyl amino squarate and thiadiazole dioxide beta-3 adrenergic receptor agonists” (American Home Products Corporation, priority 2000, dated 2002).
Structures can show the parent of a compound that is named as a salt.

Columns and labels:
human β3-AR = molecular target: T1, human β3-AR (Homo sapiens, UniProt P13945); assay: cAMP accumulation (SPA) in CHO cells transfected with human β3-AR; format: cell-based; conditions: CHO cells transfected with human β3-AR; for EC50: cAMP by SPA, 30 min at 37° C., 10^−9 M to 10^−5 M, read-out: EC50(β3); for IA(β3): maximal response of compound relative to maximal response of isoproterenol at 10^−5 M
T1 construct: Full-length β3-AR clones (402 amino acids) containing the last 6 amino acids of hβ3-AR; expressed in transfected cells; host or cells: CHO (Chinese hamster ovary) cells
T1 sequence (P13945 whole entry): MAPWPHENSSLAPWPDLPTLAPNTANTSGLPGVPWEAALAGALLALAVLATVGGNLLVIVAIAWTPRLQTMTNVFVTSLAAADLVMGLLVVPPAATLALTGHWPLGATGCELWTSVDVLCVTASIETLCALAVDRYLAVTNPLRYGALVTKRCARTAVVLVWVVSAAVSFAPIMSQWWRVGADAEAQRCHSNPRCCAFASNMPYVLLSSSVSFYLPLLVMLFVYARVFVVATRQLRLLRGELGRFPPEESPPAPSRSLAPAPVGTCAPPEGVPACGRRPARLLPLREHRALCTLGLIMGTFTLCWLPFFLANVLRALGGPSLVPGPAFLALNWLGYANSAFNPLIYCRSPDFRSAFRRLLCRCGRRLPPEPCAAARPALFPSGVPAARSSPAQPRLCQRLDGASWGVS
Description: The ability of the compounds of this invention to treat or inhibit disorders related to insulin resistance or hyperglycemia was confirmed with representative compounds of this invention in the following standard pharmacological test procedures, which measured the binding selectivity of the β1-, β2-, and β3-AR. Binding to the receptors was measured in Chinese Hamster ovary (CHO) cells that were transfected with β1-, β2-, and β3-AR's. The following briefly summarizes the procedures used and results obtained.
Cloning of Human β3-AR Genomic DNA: cDNA was constructed by ligating four polymerase chain reaction (PCR) products using the following primers: an ATG-Narl fragment, sense primer 5′-[…]3′ and anti-sense primer 5′[…]3′; a Narl-Accl fragment, 5′[…]3′ as sense and 5′[…]3′ as anti-sense primer; an Accli—Styl fragment, sense primer 5′[…]3′ and anti-sense primer 5′[…]3′ and a Styl-TAG fragment, with sense primer 5′ […]3′ and anti-sense primer 5′ […]3′ . The corresponding primer sequences are described in Mantzoros, C. S., et.al., Diabetes, 1996, 45, 909-914. The four fragments are ligated into a pUC 18 plasmid (Gibco-BRL) and sequenced. Full-length β3-AR clones (402 amino acids) containing the last 6 amino acids of hβ3-AR are prepared with the β3-βARpcDNA3 from ATTC.
Binding Procedure: Clones expressing receptor levels of 70 to 110 fmoles/mg protein were used in the test procedures. CHO cells were grown in 24-well tissue culture plates in Dulbecco's Modified Eagle Media with 10% fetal bovine serum, MEM non-essential amino acids, Penicillin—Streptomycin and Geneticin. On the day of test procedure, growth medium was replaced with preincubation media (Dulbecco's Modified Eagle Media) and incubated for 30 minutes at 37° C. Pre-incubation medium was replaced with 0.2 ml treatment medium containing DMEM media containing 250 μM IBMX (isobutyl-1-methylxantine) plus 1 mM ascorbic acid with test compound dissolved in DMSO. Test compounds were assayed over a concentration range of 10^−9 M to 10^−5 M for β3-AR transfected cells and 10^−8 to 10^−4 M for β1-AR and β2-AR transfected cells. Isoproterenol (10^−5 M) was used as an internal standard for comparison of activity. Cells were incubated at 37° C. on a rocker for 30 min with the β3-AR transfected cells and 15 min with β1-AR and β2-AR transfected cells. Incubation was stopped by the addition of 0.2N HCl and the acid was neutralized with 2.5N NaOH. The plates, containing the cells and neutralized media, were stored at −20° C. until ready to test for cAMP using the SPA test kit (Amersham).
Data Analysis and Results: Data collected from the SPA test procedure were analyzed as percent of the maximal isoproterenol response at 10^−5 M. Activity curves were plotted using the SAS statistical and graphics software.

| EC50 (human β3-AR) [nM] | IA(β3) (human β3-AR) | melting point [°C] | Molecule |
| --- | --- | --- | --- |
| 0.8 | 1.0 | – | CN(C)c1ccc(C2(CNC3=NS(=O)(=O)N=C3Nc3ccc(CC(C)(C)NCC(O)c4ccc(O)c(NS(C)(=O)=O)c4)cc3)CCCC2)cc1 (centres unmarked) [Compound 34, N-[5-(2-{2-[4-(4-{[1-(4-dimethylamino-phenyl)-cyclopentylmethyl]-amino}-1,1-dioxo-1H-1.lambda(6).-[1,2,5]thiadiazol-3-ylamino)-phenyl]-1,1-dimethyl-ethylamino}-1-hydroxy-ethyl)-2-hydroxy-phenyl]-methanesulfonamide] |
| 14 | 0.89 | – | CC(C)(Cc1ccc(NC2=NS(=O)(=O)N=C2NCC(c2ccccc2)c2ccccc2)cc1)NC[C@H](O)COc1ccc(O)cc1 [Compound 29, 4-[(2S)-3-(2-{4-[4-(2,2-Diphenyl-ethylamino)-1,1-dioxo-1H-1(lambda(6))-[1,2,5]thiadiazol-3-ylamino]-phenyl}-1,1-dimethyl-ethylamino)-2-hydroxy-propoxy]l-phenol] |
| 88 | 0.85 | – | CCCCCCCCCCNC1=NS(=O)(=O)N=C1Nc1ccc(CC(C)NC[C@H](O)COc2ccc(O)cc2)cc1 (stereo partly drawn) [Compound 25, 4-((2S)-3-{2-[4-(4-Decylamino-1,1-dioxo-1H-1(lambda(6))-[1,2,5]thiadiazol-3-ylamino)-phenyl]-1-methyl-ethylamino}-2-hydroxy-propoxy)-phenol] |
| 5 | 1.0 | – | CC(Cc1ccc(NC2=NS(=O)(=O)N=C2NCC2(c3ccccc3)CCCC2)cc1)NC[C@H](O)COc1ccc(O)cc1 (stereo partly drawn) [Compound 31, 4-{(2S)-3-[2-(4-{1,1-Dioxo-4-[(1-phenyl-cyclopentylmethyl)-amino]-1H-1(lambda(6))-[1,2,5]thiadiazol-3-ylamino}-phenyl)-1-methyl-ethylamino]-2-hydroxy-propoxy}-phenol] |
| – | – | 146 to 155 | CCCCCCCCCCNC1=NS(=O)(=O)N=C1Nc1ccc(CC(C)NC[C@H](O)COc2ccc(O)cc2)cc1 (stereo partly drawn) (as salt: HCl) [Compound 25, 4-((2S)-3-{2-[4-(4-Decylamino-1,1-dioxo-1H-1(lambda(6))-[1,2,5]thiadiazol-3-ylamino)-phenyl]-1-methyl-ethylamino}-2-hydroxy-propoxy)-phenol] |
| 90 | 0.62 | – | CCOC(=O)CCCNC1=NS(=O)(=O)N=C1Nc1ccc(CC(C)NC[C@H](O)COc2ccc(OCc3ccccc3)cc2)cc1 (stereo partly drawn) [Compound 32, 4-[4-(4-{2-[(2S)-3-(4-benzyloxy-phenoxy)-2-hydroxy-propylamino]-propyl}-phenylamino)-1,1-Dioxo-1H-1(lambda(6))-[1,2,5]thiadiazol-3-ylamino]-butyric acid ethyl ester] |
| 37 | 1.17 | – | CCOC(=O)CCCNC1=NS(=O)(=O)N=C1Nc1ccc(CC(C)NC[C@H](O)COc2ccc(O)cc2)cc1 (stereo partly drawn) [Compound 33, 4-{4-(4-{2-[(2S)-2-Hydroxy-3-(4-hydroxy-phenoxy)-propylamino]-propyl}-phenylamino)-1,1-dioxo-1H-1.lambda(6).-[1,2,5]thiadiazol-3-ylamino]-butyric acid ethyl ester] |
| – | 0.39 | – | CCCCCCCCCCNC1=NS(=O)(=O)N=C1Nc1ccc(CC(C)NC[C@H](O)COc2ccccc2)cc1 (stereo partly drawn) [Compound 20, (2S)-1-{2-[4-(4-Decylamino-1,1-dioxo-1H-1(lambda(6))-[1,2,5]thiadiazol-3-ylamino)-phenyl]-1-methyl-ethylamino}-3-phenoxy-propan-2-ol] |

More lines, now with the values behind:

| Molecule | EC50 (human β3-AR) [nM] | IA(β3) (human β3-AR) | melting point [°C] |
| --- | --- | --- | --- |
| CCCCCCCCNc1c(Nc2ccc(CC(C)NC[C@H](O)COc3ccc(O)cc3)cc2)c(=O)c1=O (stereo partly drawn) [Compound 14, 3-(4-{2-[(2S)-2-Hydroxy-3-(4-hydroxy-phenoxy)-propylamino]-propyl}-phenylamino)-4-octylamino-cyclobut-3-ene-1,2-dione] | 21 | 0.81 | – |
| CCCCCCCCNC1=NS(=O)(=O)N=C1Nc1ccc(CC(C)(C)NC[C@H](O)COc2ccc(OCc3ccccc3)cc2)cc1 [4 (step F)] | 1060 | 0.37 | – |
| CCCCCCCCNC1=NS(=O)(=O)N=C1Nc1ccc(CCNC[C@H](O)COc2ccc(OCc3ccccc3)cc2)cc1 [5 (step E), (2S)-1-(4-Benzyloxy-phenoxy)-3-{2-[4-(4-octylamino-1,1-dioxo-1H-1.lambda(6).-[1,2,5]thiadiazol-3-ylamino)-phenyl]ethylamino}-propan-2-ol] | 1390 | 0.15 | – |
| CCCCCCCCNC1=NS(=O)(=O)N=C1Nc1ccc(CC(C)(C)NC[C@H](O)COc2ccc(O)cc2)cc1 (as salt: HCl) [Compound 4] | – | – | 229.5 to 231.3 |
| CCCCCCCCCCNC1=NS(=O)(=O)N=C1Nc1ccc(CC(C)NC[C@H](O)COc2cccc3[nH]c4ccccc4c23)cc1 (stereo partly drawn) [Compound 19, (2S)-1-(9H-Carbozol-4-yloxy)-3-{2-[4-(4-decylamino-1,1-dioxo-1H-1-.lambda(6).-[1,2,5]thiadiazol-3-ylamino)-phenyl]-1-methyl-ethylamino}-propan-2-ol] | – | 0.36 | – |
| CCCCCCCCNC1=NS(=O)(=O)N=C1Nc1ccc(CC(C)NC[C@H](O)COc2ccc(OCc3ccccc3)cc2)cc1 (stereo partly drawn) [Compound 11, (2S)-1-(4-Benzyloxy-phenoxy)-3-{1-methyl-2-[4-(4-octylamino-1,1-dioxo-1H-1.lambda(6).-[1,2,5]thiadiazol-3-ylamino)-phenyl]-ethylamino}-propan-2-ol] | – | 0.29 | – |
| CCCCCCNC(=O)Nc1ccc(C2(CNC3=NS(=O)(=O)N=C3Nc3ccc(CC(C)(C)NC[C@@H](O)COc4ccc(OCc5ccccc5)cc4)cc3)CCCC2)cc1 [8 (step H), 1-[4-(1-{[4-(4-{2-[(2R)-3-(4-Benzyloxy-phenoxy)-2-hydroxy-propylamino]-2-methyl-propyl}-phenylamino)-1 1-dioxo-1H-1.lambda(6).-[1,2,5]thiadiazol-3-ylamino]-methyl}-cyclopentyl)-phenyl]-3-hexyl-urea] | 60 | 0.40 | – |
| CCCCCCCCNC1=NS(=O)(=O)N=C1Nc1ccc(CC(C)NC[C@H](O)c2ccc(OCc3ccccc3)c(NS(C)(=O)=O)c2)cc1 (stereo partly drawn) [6 (step B), N-[2-Benzyloxy-5-((1R)-1-hydroxy-2-{1-methyl-2-[4-(4-octylamino-1,1-dioxo-1H-1(lambda(6))-[1,2,5]thiadiazol-3-ylamino)-phenyl]-ethylamino}-ethyl)-phenyl]-methanesulfonamide] | – | 0.32 | – |
| CCCCCCCCNC1=NS(=O)(=O)N=C1Nc1ccc(CC(C)NCC(O)c2cccc(Cl)c2)cc1 [Compound 3, (1R)-1-(3-Chloro-phenyl)-2-{1-methyl-2-[4-(octylamino-1,1-dioxo-1H-1-.lambda(6).-1,2,5]thiadiazol-3-ylamino)-phenyl]-ethylamino}-ethanol] | 38 | 0.86 | – |
| CCCCCCCCNC1=NS(=O)(=O)N=C1Nc1ccc(CC(C)(C)NC[C@H](O)COc2ccc(O)cc2)cc1 [Compound 4] | 68 | 1.10 | – |
| CN(C)c1ccc(C2(CNC3=NS(=O)(=O)N=C3Nc3ccc(CC(C)(C)NC[C@H](O)COc4ccc(O)cc4)cc3)CCCC2)cc1 [Compound 7, 4-{[(2S)-3-({2-[4-({4-[({1-[4-(dimethylamino)phenyl]cyclopentyl}methyl)amino]1,1-dioxido-1,25-thiadiazol-3-yl}amino)phenyl]-1 1-dimethylethyl}amino)-2-hydroxypropyl]oxy}phenol] | 55 | 0.74 | – |
| CN(C)c1ccc(C2(CNC3=NS(=O)(=O)N=C3Nc3ccc(CC(C)(C)NC[C@H](O)COc4ccc(OCc5ccccc5)cc4)cc3)CCCC2)cc1 [7 (step E), (2S)-1-(4-Benzyloxy-phenoxy)-3-{2-{4-(4-{[1-(4-dimethylamino-phenyl)-cyclopentylmethyl]-amino}-1,1-dioxo-1H-1(lambda(6))-[1,2,5]thiadiazol-3-ylamino)-phenyl]-1,1-dimethyl-ethylamino}-propan-2-ol] | 682 | 0.56 | – |
| (2S)-1-(4-Benzyloxy-phenoxy)-3-{2-[4-(4-decylamino-1,1-dioxo-1H-1-. lambda(6).-[1,2,5]thiadiazol-3-ylamino)-phenyl]-1-methyl-ethylamino}-propan-2-ol [Compound 18] | – | 0.46 | – |
